Results published in ChEMBL document CHEMBL1136132, “Effect of structural modification on the inhibitory selectivity of rutaecarpine derivatives on human CYP1A1, CYP1A2, and CYP1B1” (Bioorg Med Chem Lett, 2003).

Columns and labels:
[1] = Ratio for inhibition of Cytochrome P450 1B1 to that of Cytochrome P450 1A2; format: ADME
Cytochrome P450 1A2 = target: T1, Cytochrome P450 1A2 (Homo sapiens, UniProt P05177); assay: Inhibition of Cytochrome P450 1A2 enzyme in bacterial membrane expressing human P450s; format: ADME, cell membranes
T1 sequence (P05177 whole entry): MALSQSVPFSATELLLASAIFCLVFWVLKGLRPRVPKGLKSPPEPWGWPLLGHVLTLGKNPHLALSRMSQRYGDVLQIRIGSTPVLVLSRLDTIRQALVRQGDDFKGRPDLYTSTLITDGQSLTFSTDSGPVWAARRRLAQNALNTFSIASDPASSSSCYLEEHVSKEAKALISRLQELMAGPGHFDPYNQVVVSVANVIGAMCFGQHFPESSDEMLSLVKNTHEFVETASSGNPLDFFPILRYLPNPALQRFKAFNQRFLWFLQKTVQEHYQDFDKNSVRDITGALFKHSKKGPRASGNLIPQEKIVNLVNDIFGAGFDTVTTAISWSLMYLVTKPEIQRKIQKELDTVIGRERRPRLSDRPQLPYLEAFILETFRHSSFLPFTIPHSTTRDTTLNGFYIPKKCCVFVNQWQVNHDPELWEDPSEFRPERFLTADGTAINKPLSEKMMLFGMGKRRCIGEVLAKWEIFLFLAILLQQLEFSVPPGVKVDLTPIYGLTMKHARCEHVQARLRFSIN

Cytochrome P450 1B1 [2] = target: T2, Cytochrome P450 1B1 (Homo sapiens, UniProt Q16678); assay: Inhibition of Cytochrome P450 1B1 enzyme in bacterial membrane expressing human P450s; format: ADME, cell membranes
T2 sequence (Q16678 whole entry): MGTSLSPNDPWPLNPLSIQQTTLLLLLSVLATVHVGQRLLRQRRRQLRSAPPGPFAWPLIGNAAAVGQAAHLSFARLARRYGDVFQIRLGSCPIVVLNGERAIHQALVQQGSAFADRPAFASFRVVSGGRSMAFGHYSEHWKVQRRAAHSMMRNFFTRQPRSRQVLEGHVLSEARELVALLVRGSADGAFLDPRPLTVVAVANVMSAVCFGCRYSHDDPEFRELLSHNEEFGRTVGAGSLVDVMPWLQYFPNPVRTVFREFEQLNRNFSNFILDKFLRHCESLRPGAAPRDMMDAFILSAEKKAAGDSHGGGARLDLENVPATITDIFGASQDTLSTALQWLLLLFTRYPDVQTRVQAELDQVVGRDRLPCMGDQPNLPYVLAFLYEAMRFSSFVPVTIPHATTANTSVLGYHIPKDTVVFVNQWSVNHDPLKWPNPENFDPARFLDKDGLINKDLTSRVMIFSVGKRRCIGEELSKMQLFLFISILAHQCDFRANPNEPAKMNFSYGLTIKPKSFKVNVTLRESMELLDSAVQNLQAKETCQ

Cytochrome P450 1A1 = target: T3, Cytochrome P450 1A1 (Homo sapiens, UniProt P04798); assay: Inhibition of Cytochrome P450 1A1 enzyme in bacterial membrane expressing human P450s; format: ADME, cell membranes
T3 sequence (P04798 whole entry): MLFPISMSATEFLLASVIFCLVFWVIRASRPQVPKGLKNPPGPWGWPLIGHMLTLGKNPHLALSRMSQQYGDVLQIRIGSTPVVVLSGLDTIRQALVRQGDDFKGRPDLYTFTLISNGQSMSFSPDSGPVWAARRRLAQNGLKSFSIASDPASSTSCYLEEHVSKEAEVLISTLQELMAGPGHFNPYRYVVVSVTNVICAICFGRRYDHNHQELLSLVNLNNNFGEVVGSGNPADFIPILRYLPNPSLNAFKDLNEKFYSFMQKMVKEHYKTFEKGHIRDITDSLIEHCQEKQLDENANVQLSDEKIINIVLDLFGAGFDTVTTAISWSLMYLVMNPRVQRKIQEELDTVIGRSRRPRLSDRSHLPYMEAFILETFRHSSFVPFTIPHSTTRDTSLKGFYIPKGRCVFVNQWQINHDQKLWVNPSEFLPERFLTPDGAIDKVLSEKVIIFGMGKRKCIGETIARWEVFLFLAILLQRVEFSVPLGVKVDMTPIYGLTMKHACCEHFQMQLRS

[3] = Ratio for inhibition of Cytochrome P450 1A1 to that of Cytochrome P450 1A2; format: ADME
Cytochrome P450 1B1 [4] = target: T2, Cytochrome P450 1B1; assay: Inhibition of human Cytochrome P450 1B1 expressed in bacterial membrane; format: ADME, cell membranes

| SMILES | ratio [1] | IC50 (Cytochrome P450 1A2) [nM] | IC50 (Cytochrome P450 1B1 [2]) [nM] | IC50 (Cytochrome P450 1A1) [nM] | ratio [3] | IC50 (Cytochrome P450 1B1 [4]) [nM] |
| --- | --- | --- | --- | --- | --- | --- |
| O=c1c2ccccc2nc2n1CCc1c-2[nH]c2ccccc12 [RUTAECARPINE] | 3 | 22 | 55 | 260 | 13 | – |
| O=c1c2ccc(Cl)cc2nc2n1CCc1c-2[nH]c2ccccc12 | 1 | 39 | 37 | 1200 | 30 | – |
| CN1c2ccccc2C(=O)N2CCc3c([nH]c4ccccc34)[C@H]21 [EVODIAMINE] | – | 16300 | 690 | 24600 | – | – |
| COc1ccc2nc3n(c(=O)c2c1)CCc1c-3[nH]c2ccccc12 | 0.5 | 280 | 140 | 1280 | 5 | – |
| COc1cc2nc3n(c(=O)c2cc1OC)CCc1c-3[nH]c2ccccc12 | < 0.0003 | > 500000 | 160 | 1580 | < 0.003 | – |
| COc1cc(OC)c2nc3n(c(=O)c2c1)CCc1c-3[nH]c2ccccc12 | 2 | 41 | 80 | 420 | 11 | – |
| COc1cccc2c(=O)n3c(nc12)-c1[nH]c2ccccc2c1CC3 | 7 | 11 | 71 | 450 | 45 | – |
| CN1c2ccccc2C(=O)N2CCc3c([nH]c4ccccc34)[C@@H]21 [EVODIAMINE] | 0.04 | – | – | – | 2 | – |
| Oc1c2ccccc2nc2c3nc4ccccc4c-3ccn12 | – | 30 | – | – | – | – |
| C[n+]1c2n(c(=O)c3ccccc31)CCc1c-2[nH]c2ccccc12 [DEHYDROEVODIAMINE] | 0.06 | 5630 | 330 | 18000 | 3 | – |
| COc1ccc2c(=O)n3c(nc2c1)-c1[nH]c2ccccc2c1CC3 | 2 | 76 | 170 | 850 | 11 | – |
| COc1ccc2c3c([nH]c2c1)-c1nc2ccccc2c(=O)n1CC3 | 0.06 | 1980 | 110 | 2000 | 1 | – |
| COc1ccc2c(=O)n3c(nc2c1OC)-c1[nH]c2ccccc2c1CC3 | 8 | 29 | 2400 | 970 | 33 | – |
| COc1ccc2[nH]c3c(c2c1)CCn1c-3nc2ccccc2c1=O | 0.03 | 2920 | – | 1780 | 0.6 | 84 |
| COc1ccc2nc3n(c(=O)c2c1OC)CCc1c-3[nH]c2ccccc12 | 0.08 | 1730 | 140 | 870 | 0.5 | – |
| O=c1c2cc(Br)ccc2nc2n1CCc1c-2[nH]c2ccccc12 | 0.8 | 1500 | 120 | 2470 | 16 | – |
| O=c1c2cc(Cl)ccc2nc2n1CCc1c-2[nH]c2ccccc12 | 3 | 29 | 90 | 1920 | 64 | – |
